According to US20040209776A1, “Azole derivatives useful as insecticide” (priority 2001, published 2004):

Key:
Plutella xylostella = assay: Pest mortality test against diamond back moth; type: in vivo; details: 120 h, 500 ppm by weight, mortality assessed usually between two and five days after treatment, read-out: Px mortality (score)
Description: (§1) This Example illustrates the pesticidal/insecticidal properties of compounds of formula (I). The activities of individual compounds of formula (I) were determined using a variety of pests. The pests were treated with a liquid composition containing 500 parts per million (ppm) by weight of a compound of formula (I). Each composition was made by dissolving the compound in an acetone and ethanol (50:50 by volume) mixture and diluting the solution with water containing 0.05% by volume of a wetting agent, SYNPERONIC NP8, until the liquid composition contained the required concentration of the compound. SYNPERONIC is a registered trade mark.
(§2) The test procedure adopted with regard to each pest was essentially the same and comprised supporting a number of the pests on a medium, which was usually a substrate, a host plant or a foodstuff on which the pests feed, and treating either or both the medium and the pests with a composition. Pest mortality was assessed usually between two and five days after treatment.
(§3) Similar tests were conducted against, independently, two-spotted spider mites (Tetranychus urticae), fruit flies (Drosophila melanogaster), tobacco budworms (Heliothis virescens), diamond back moth (Plutella xylostella) and corn root worm (Diabrotica balteata).

Drosophila melanogaster = assay: Pest mortality test against fruit flies; type: in vivo; details: 120 h, 500 ppm by weight, mortality assessed usually between two and five days after treatment, read-out: Dm mortality (score)
Description: as §1, §2, §3

Meloidogyne incognita = assay: In vitro test against root knot nematodes suspended in liquid composition; type: in vivo; details: 12.5 ppm by weight, no SYNPERONIC NP8, read-out: Mi mortality (score)
Description: as §1
Tests were also conducted against root knot nematodes (Meloidogyne incognita) using an in vitro test in which nematodes were suspended in a liquid composition which had been prepared as described above except that it contained a concentration of 12.5 ppm by weight of a compound of formula (I) and it contained no SYNPERONIC NP8.

Diabrotica balteata = assay: Pest mortality test against corn root worm; type: in vivo; details: 120 h, 500 ppm by weight, mortality assessed usually between two and five days after treatment, read-out: Db mortality (score)
Description: as §1, §2, §3

Heliothis virescens = assay: Pest mortality test against tobacco budworms; type: in vivo; details: 120 h, 500 ppm by weight, mortality assessed usually between two and five days after treatment, read-out: Hv mortality (score)
Description: as §1, §2, §3

Myzus persicae = assay: Pest mortality test against peach potato aphids, infested Chinese cabbage leaves sprayed; type: in vivo; details: 72 h, 500 ppm by weight, sprayed on infested Chinese cabbage leaves, mortality assessed after three days, read-out: Mp mortality (score)
Description: as §1, §2
In each test against peach potato aphids (Myzus persicae), Chinese cabbage leaves were infested with aphids, the infested leaves were sprayed with a test composition and pest mortality was assessed after three days.

Row | melting point | Structure (SMILES) | mortality at 500 ppm (Plutella xylostella) | mortality at 500 ppm (Drosophila melanogaster) | mortality at 12.5 ppm (Meloidogyne incognita) | mortality at 500 ppm (Diabrotica balteata) | mortality at 500 ppm (Heliothis virescens) | mortality at 500 ppm (Myzus persicae)
1 | – | CCc1nsc(NC(=O)C(C)c2ccc3oc(-c4c(F)cccc4Cl)nc3c2)c1Cl (stereo not shown) [Compound 1, N-(4-chloro-3-ethylisothiazol-5-yl)-2-[2-(2-chloro-6-fluorophenyl)benzoxazol-5-yl]propionamide] | 80 to 100% | 80 to 100% | < 40% | 80 to 100% | 80 to 100% | 80 to 100%
2 | 158 to 161 °C | Cc1nsc(NC(=O)C(C)c2ccc3oc(-c4cccc(Cl)c4Cl)nc3c2)c1Cl (stereo not shown) [Compound 11, N-(4-chloro-3-methylisothiazol-5-yl)-2-[2-(2,3-dichlorophenyl)benzoxazol-5-yl]propionamide] | – | – | – | – | – | –
